Read-outs that look alike come from different tables or passages of the source.
Columns and labels:
[1] = set-up: method as in earlier work; settings: cited from earlier work
[2] = set-up: method as in PMID 11901097; settings: cited from earlier work
OAT1 = assay: Uptake of EZE-Ph into OAT1-transfected HEK293 cells; assay type: in vitro ADME, human; settings: 10 μM EZE-Ph
Description: (§1) Human OATP1B1-, OATP1B3-, OATP2B1-, OAT1-, OAT3-, or OCT2-transfected HEK293 cells and vector-transfected control cells (mock) were constructed at HD Biosciences Co., Ltd. (Shanghai, China). The functions of these transporters were evaluated using relevant positive substrates and inhibitors. Estradiol-17β-glucuronide (5 μM, OATP1B1 and OATP1B3), estrone 3-sulfate sodium salt (E3S, 5 μM, OATP2B1), para-aminohippuric acid (PAH, 20 μM, OAT1), furosemide (5 μM, OAT3), and 1-methyl-4-phenyl pyridinium (MPP^+, 5 μM, OCT2) were used as substrates for the transporters. […] The cells (50,000 per well) were cultured in Dulbecco’s modified Eagle’s medium (containing 10% fetal bovine serum, 1% GlutaMAX-I, 1% penicillin G/streptomycin, and 1% nonessential amino acids) on poly-D-lysine-coated 96-well plates at 37 °C in an atmosphere of 5% CO2.
(§2) The cells were rinsed three times with HBSS (37 °C) and then equilibrated in HBSS for 10 min. […] The protein content was measured using a BCA protein assay kit. The concentrations of EZE and EZE-Ph were determined using LC-MS/MS.
(§3) The rates of substrate uptake were normalized using the protein contents of cell lysates. The net uptake via transporters was calculated by subtracting the uptake in vector-transfected HEK293 cells (or uptake into hepatocytes at 4 °C) from that in transporter-transfected HEK293 cells (or uptake into hepatocytes at 37 °C).

OATP1B3 = molecular target: T1, OATP1B3 (Homo sapiens, UniProt Q9NPD5); assay: Uptake of EZE-Ph into OATP1B3-transfected HEK293 cells; assay type: in vitro ADME; set-up: host or cells: HEK293
T1 sequence (Q9NPD5 1-702): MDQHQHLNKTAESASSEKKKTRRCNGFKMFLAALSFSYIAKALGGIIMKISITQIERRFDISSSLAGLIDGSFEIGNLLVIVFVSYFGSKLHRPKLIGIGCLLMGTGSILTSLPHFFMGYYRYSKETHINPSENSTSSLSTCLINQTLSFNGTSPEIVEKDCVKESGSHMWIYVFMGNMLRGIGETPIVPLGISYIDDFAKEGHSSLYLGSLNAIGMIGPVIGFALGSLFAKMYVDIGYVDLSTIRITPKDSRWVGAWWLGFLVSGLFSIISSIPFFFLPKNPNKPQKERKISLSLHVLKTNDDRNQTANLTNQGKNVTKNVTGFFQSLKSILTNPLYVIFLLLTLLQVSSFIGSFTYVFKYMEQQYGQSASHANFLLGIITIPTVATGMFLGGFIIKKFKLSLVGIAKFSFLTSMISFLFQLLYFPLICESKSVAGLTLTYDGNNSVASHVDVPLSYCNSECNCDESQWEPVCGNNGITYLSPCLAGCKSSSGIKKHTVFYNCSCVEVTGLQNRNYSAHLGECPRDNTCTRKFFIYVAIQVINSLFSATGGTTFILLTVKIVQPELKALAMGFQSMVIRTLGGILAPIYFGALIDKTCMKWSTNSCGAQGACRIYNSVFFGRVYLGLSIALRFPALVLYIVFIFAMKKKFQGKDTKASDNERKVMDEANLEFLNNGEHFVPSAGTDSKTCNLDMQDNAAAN
Description: The kinetic parameters and the half inhibitory concentration (IC50) were calculated using GraphPad Prism. […] The intrinsic clearance (CLint) was calculated as CLint = Vmax/Km.

OCT2 = assay: Uptake of EZE-Ph into OCT2-transfected HEK293 cells; assay type: in vitro ADME, human; settings: 10 μM EZE-Ph
Description: as §1, §2, §3

[3] = OATP1B3 HEK293, uptake time 5 min

SMILES	plasma exposure, fold higher than in healthy subjects ([1]; mild CLD patients) [fold]	plasma exposure, fold higher than in healthy subjects ([1]; moderate CLD patients) [fold]	plasma exposure, fold higher than in healthy subjects ([1]; severe CLD patients) [fold]	share of the EZE-related material in human plasma [2]	uptake in transporter-transfected cells relative to mock-transfected cells (OAT1)	uptake in transporter-transfected cells relative to mock-transfected cells (OATP1B3; 10 μM EZE-Ph, OATP1B3 HEK293) [times]	CLint (OATP1B3; OATP1B3 HEK293, CLint = Vmax/Km) [μL/min/mg Protein]	Kinetic Model (OATP1B3; [3])	Vmax (OATP1B3; [3]) [pmol/min/mg Protein]	Km at 5 min (OATP1B3; human, OATP1B3-transfected HEK293 cells, OATP1B3 HEK293, uptake time 5 min) [µM]	uptake in transporter-transfected cells relative to mock-transfected cells (OCT2)
O=C1[C@H](CC[C@H](O)c2ccc(F)cc2)[C@@H](c2ccc(O)cc2)N1c1ccc(F)cc1 [EZE, 1-(4-fluorophenyl)-3(R)-[3-(4-fluorophenyl)-3(S)-hydroxypropyl]-4(S)-(4-hydroxyphenyl)-2-azetidinone, reference compound]	1.4	5.8	4.8	10–20%	–	–	–	–	–	–	–
O=C(O)[C@H]1O[C@@H](Oc2ccc([C@@H]3[C@@H](CC[C@H](O)c4ccc(F)cc4)C(=O)N3c3ccc(F)cc3)cc2)[C@H](O)[C@@H](O)[C@@H]1O [EZE-Ph, ezetimibe phenoxy β-D-glucuronide]	–	–	–	–	less than twice	56	6.73	Substrate inhibition	134	19.9	less than twice

— paper PMC9785202, “Changes in Disposition of Ezetimibe and Its Active Metabolites Induced by Impaired Hepatic Function: The Influence of Enzyme and Transporter Activities” (Pharmaceutics, 2022)
